Results: PubChem BioAssay AID179 (DTP/NCI, 2004)
Where “and” joins values, the source holds several entries; their conditions need not be identical. Identical values can stand only once. Calls of active or inactive are those of the source.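 The calls were made as follows: active = compounds giving half or more protection of infected cells from virus-caused growth loss, again on retest; inactive = the rest.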

Test system: CEM cells HIV-1 protection, formazan growth assay
Test: NCI AIDS Antiviral Assay
Details: for IC50: measured here: growth of uninfected CEM cells
Outline: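 Category rules: moderately active means at least 50% protection on retest, and confirmed active means 100% protection reproducibly. The underlying data came from a formazan growth assay in HIV-1-infected CEM cells.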

O=C(O)c1ccc(N=NC2Sc3nc4ccccc4n3C2=O)cc1 (configuration not stated)
EC50: > 200 µM
IC50: > 200 µM

CN(C)C(=S)/N=c1\sn(C)/c(=N\C(=S)N(C)C)n1C
outcome: inactive

CC(C)(CN1CCCCC1)C(=O)/C=C/c1ccc(Cl)c(Cl)c1
EC50: > 33.1 µM
IC50: 3.09 µM

O=C(/C=C/c1ccc2c(c1)OCO2)c1cc(Cl)cc(Cl)c1O
outcome: inactive

CCOC(=O)C(=O)Cc1cnc2ccccc2n1
EC50: > 53.7 µM
IC50: > 53.7 µM

CC(=O)N=C1N(/C=C2\C(=O)Oc3ccccc3C2=O)C(=O)/C(=C/c2ccc(Cl)cc2Cl)N1C
EC50: > 200 µM
IC50: 34.7 µM

O=C1C2=Cc3ccccc3CCN2c2ccccc21
EC50: > 200 µM
IC50: 26.9 µM

Cc1cc(CN(Cc2ccccc2)Cc2nc3ccccc3[nH]2)c(O)c(CN(Cc2nc3ccccc3[nH]2)Cc2nc3ccccc3[nH]2)c1
EC50: > 200 µM
IC50: 24.5 µM

COc1cc(C2CC(=O)c3ccccc3O2)ccc1O (configuration not stated)
EC50: > 200 µM
IC50: 11.7 µM

Cc1cn(C2CC3C(COC(c4ccccc4)N3O)O2)c(=O)[nH]c1=O (configuration not stated)
EC50: > 200 µM
IC50: 34.7 µM

COC(=O)c1cc2cc(O)c(O)cc2cn1
EC50: > 200 µM
IC50: > 8.32 µM and 12 µM

CCOC(=O)c1nc2cc(C(F)(F)F)ccc2nc1Oc1ccc(C(=O)OC)cc1
EC50: > 200 µM
IC50: 95.5 µM

COc1cc(OC)c2c(=O)c3cccc(O)c3oc2c1
EC50: > 200 µM
IC50: > 200 µM

O=C(/C=C\c1ccc(Cl)c(Cl)c1)c1ccc(Cl)cc1Cl
EC50: > 14.5 µM
IC50: > 14.5 µM

CC(C)(C)C(=O)C(C(=O)C(C)(C)C)C(=O)C(C)(C)C
outcome: inactive

CC1CCC(C(C)C)/C(=N/NC(=O)CC#N)C1 (configuration not stated)
EC50: > 200 µM
IC50: > 200 µM

CN(C)c1ccc2c(c1)-c1cc(N(C)C)ccc1C2=CC=C1C(=O)NC(=O)NC1=O
EC50: > 3.39 µM
IC50: > 3.39 µM

COc1ccc2cc1Oc1ccc(cc1)CC1c3cc4c(cc3CCN1C)Oc1c(OC)cc3c(c1O4)C(C2)N(C)CC3 (configuration not stated)
outcome: inactive

CSSCc1ccccc1
EC50: > 200 µM
IC50: 19.1 µM

O=C(O)C1CC2(CCC1c1ccccc1)SCCS2 (configuration not stated)
EC50: > 447 µM
IC50: > 447 µM

Cc1cc(S(=O)(=O)NC(=NCC(=O)NN)NN)c(S)cc1Cl
EC50: > 200 µM
IC50: 34.7 µM

c1ccc(N=C2SC(=NNc3ccccc3)SC2=Nc2ccccc2)cc1
EC50: > 200 µM
IC50: > 200 µM

N#Cc1ccc(-c2ccc(Cl)cc2)n(C2OC(CO)C(O)C(O)C2O)c1=S (configuration not stated)
EC50: > 200 µM
IC50: > 200 µM

Cc1ccc(S(=O)(=O)NC(N)=NCCCC(NC(=O)OCc2ccccc2)C(=O)N[C@H]2CC[C@H]3[C@@H]4CC=C5C[C@@H](O)CC[C@]5(C)[C@H]4CC[C@]23C)cc1 (some centres not stated)
EC50: > 200 µM
IC50: 34.7 µM

N#CCCCCC12C3C(=O)N(c4ccccc4)C(=O)C3ON1O[C@@H]1C(=O)N(c3ccccc3)C(=O)[C@@H]12 (some centres not stated)
EC50: > 200 µM
IC50: > 200 µM

CC1(C)OC(=O)c2cc(C(=CCCBr)c3cc(Cl)c4c(c3)C(=O)OC(C)(C)O4)cc(Cl)c2O1
EC50: > 100 µM
IC50: 41.7 µM

CC(=O)OC1C2C(=C(C)C(=O)O[C@@H]2c2ccoc2)[C@@]2(C)C3CCC(C)(C(=O)O3)C12 (some centres not stated)
EC50: 162 µM
IC50: > 200 µM

CCOP(=O)(OCC)C(C(=O)OC)C(=O)C(=O)Nc1c(C)cc(Br)cc1C (configuration not stated)
EC50: > 537 µM
IC50: > 537 µM

CCOC(=O)C1(C(=O)OCC)COC(C)(C)OC1
EC50: > 200 µM
IC50: > 200 µM

O=C(O)CN(CC(=O)O)C(C(=O)O)c1ccccc1 (configuration not stated)
EC50: > 200 µM
IC50: > 200 µM

CCOC(=O)C1=CC(C(=O)OCC)C2C=CC1N2C(=O)OC (configuration not stated)
outcome: inactive

C/C1=C\[C@@H](O)C(=O)/C=C/C=C\c2csc(n2)[C@@H](C)NC(=O)C[C@@]2(CC1)S(=O)SC(=O)[C@]2(C)O (some centres not stated)
EC50: > 1.32 µM
IC50: 0.0055 µM

COc1c2c3c(ccnc3c3ccccc13)C(=O)N2C
EC50: > 200 µM
IC50: 9.55 µM

CN1N=Nc2ccccc2C1(O)c1ccc(F)cc1 (configuration not stated)
EC50: > 200 µM
IC50: > 200 µM

OC(CN1CCC(c2ccccc2)CC1)c1ccc(Br)cc1 (configuration not stated)
EC50: > 18.2 µM
IC50: > 18.2 µM

O=C1C=CC(=O)C(CNc2ccc(C(=O)OC34CC5CC(CC(C5)C3)C4)cc2)=C1
EC50: > 200 µM
IC50: 10.5 µM

COC1=CC2OC3OC(=O)CC3C2C(OCc2ccccc2)=C1 (configuration not stated)
EC50: > 31.6 µM
IC50: > 31.6 µM

COc1cc2c(cc1O)[C@H](C)C(c1ccc(Cl)cc1)O2 (some centres not stated)
EC50: > 64.6 µM
IC50: 33.1 µM

COc1ccc2c(c1)OC1c3ccccc3OCC21 (configuration not stated)
outcome: inactive

CN(C)C[C@@H]1C2C=CC(C2)[C@@H]1CO (some centres not stated)
EC50: > 490 µM
IC50: > 490 µM

CC(/C=C/c1ccccc1)=N\NC(=S)N/N=C(C)/C=C/c1ccccc1
EC50: > 200 µM
IC50: 4.07 µM

CSCCC(NC(=O)OC(C)(C)C)C(=O)NCCNc1ccc(NCCNC(=O)C(CCSC)NC(=O)OC(C)(C)C)c2c1C(=O)c1ccccc1C2=O (configuration not stated)
EC50: > 100 µM
IC50: > 100 µM

CCOC(=O)C(NC(=O)c1ccccc1)[CH](c1ccccc1)[Sn]([c]1ccccc1)([c]1ccccc1)[c]1ccccc1 (configuration not stated)
EC50: > 200 µM
IC50: 20.4 µM

COc1c(Cl)cc(C(=CCCCCN[C@H]2CC[C@@]3(C)[C@@H](CC[C@@H]4[C@@H]3CC[C@]3(C)[C@@H](C(C)CCCC(C)C)CC[C@@H]43)C2)c2cc(Cl)c(OC)c(C(=O)O)c2)cc1C(=O)O (some centres not stated)
EC50: > 200 µM
IC50: > 200 µM

O=C(O)CCC1(Br)CCCCC(Br)C1=O (configuration not stated)
EC50: > 724 µM
IC50: 245 µM

Cn1c(=O)c2c(ncn2CC(=O)N/N=C2\SCC(=O)N2Cc2ccccc2)n(C)c1=O
EC50: > 74.1 µM
IC50: > 74.1 µM

CCOc1ccc(NC(=O)CCC(=O)NN)cc1
EC50: > 724 µM
IC50: 603 µM

NCCCC[C@@H](NC(=O)[C@H](CS)NC(=O)[C@@H](N)Cc1cnc[nH]1)C(=O)N[C@H](Cc1ccccc1)C(=O)N[C@H](Cc1c[nH]c2ccccc12)C(=O)N[C@@H](Cc1c[nH]c2ccccc12)C(N)=O
EC50: > 200 µM
IC50: > 200 µM

CC(=O)O[C@@H]1CC[C@@]2(C)C(=O)C34C[C@@]5(C)C([C@@H](C)CCCC(C)C)CCC5(C)[C@](O)(O3)C(=O)[C@H]4C2C1(C)C (some centres not stated)
EC50: > 18.6 µM
IC50: > 18.6 µM

O=C(CCl)N1CCN(c2ccccn2)CC1
EC50: > 1050 µM

CCOC(=O)c1c(SCCO)n(-c2ccccc2)c(=S)n(-c2ccccc2)c1=O
EC50: > 200 µM
IC50: > 200 µM

C#CCOCn1cc(C)c(=O)[nH]c1=O
EC50: > 200 µM
IC50: > 200 µM

CC(C)(C)OC(=O)NNCC(O)COc1ccccc1 (configuration not stated)
EC50: > 200 µM
IC50: 91.2 µM

CN(C)c1ccc(N2C(=S)SC(=Nc3ccccc3)C2=Nc2ccccc2)cc1
EC50: > 200 µM
IC50: > 200 µM

S=C(N/N=C/c1ccccc1)NC1CC(c2ccccc2)Oc2ccccc21 (configuration not stated)
outcome: inactive

C[C@H](NC(=O)n1c2ccccc2c2ccccc21)C(=O)O
EC50: > 891 µM
IC50: 234 µM

c1cc2cc3c(cc2o1)OC[C@H]1c2cc4c(cc2O[C@@H]31)OCO4
EC50: > 43.7 µM
IC50: 10.5 µM

COc1cc(/C=C/C(C)=O)ccc1OP(=O)(O)O
EC50: > 200 µM
IC50: > 200 µM

NC(CSSCC(N)=NCCCCCSC12CC3CC(CC(C3)C1)C2)=NCCCCCSC12CC3CC(CC(C3)C1)C2
EC50: > 200 µM
IC50: 6.17 µM

O=C(c1ccc(Br)cc1)n1c2ccc(Br)cc2c2nc3ccccc3nc21
EC50: > 50.1 µM
IC50: > 50.1 µM
